Data on one compound can be found in US5900434A, “Method for inhibiting the production of interleukin-1 or tumor necrosis factor-α by administering acanthoic acid” (Korea Institute of Science and Technology, priority 1994, dated 1999).

The subject of one data set is NIH3T3 fibroblasts. The experiment in a line: Inhibition of proliferation of NIH3T3 fibroblasts (3H-thymidine). It counts as cell-based. As to conditions: dialyzate of monocytes/macrophages treated with 10 μg/ml acanthoic acid and silica; 5 days; FIG. 6. The protocol: NIH3T3 fibroblast(ATCC CRL 1658) was cultured in RPMI 1640 medium containing 10% FBS under the same conditions as described above. Acanthoic acid was added in various concentrations to 5×10^5 /ml of cells obtained in the above procedures, and the cells were precultured at 37° C. for 1 hour in 5% CO2 incubator. Then, 1 ml each of silica(100 μg/ml) and RPMI 1640 medium containing 2% FBS were added thereto and the cells were cultured under the same conditions as above for 48 hours. The culture supernatant was collected and centrifuged at 1,500 rpm for 10 minutes to remove the cells and silica. The obtained supernatant was dialyzed against PBS and filtered by 0.2 μm filtration syringe, and the filtrate was stored at -20° C. Fibrosis is caused largely by the proliferation of fibroblasts or by the synthesis of collagen. To confirm the effect of acanthoic acid on the proliferation of fibroblasts, human monocytes and macrophages were treated with 10 μg/ml of acanthoic acid and cultured according to the procedure as described in Reference Example 1 (3). The culture was dialyzed against PBS, and 50 μl of the dialyzate was added to the wells of an incubation plate. […] The amount of ^3 H-thymidine incorporated in the cell was determined by employing liquid scintillation counter(FIG. 6). […]

A further data set deals with leukocyte migration. As to conditions: cited from earlier work.
Data set [1] concerns prostaglandin E2 (PGE2) synthesis. As to conditions: cited from earlier work.
The subject of data set [2] is serum glutamic-oxaloacetic transaminase (sGOT). Kind of data set: CCl4-induced hepatocirrhosis in rat, serum GOT. It counts as in vivo, Sprague-Dawley rat. To be noted: vs CCl4, DMSO and PBS control; 0.2 ml orally twice a week, 13 weeks; FIG. 10. The text has this: Hepatocirrhosis(hepatic sclerosis) is characterized by the fibrosis of whole liver, complete disruption of liver parenchyma by fibrous septa, and formation of regenerative nodules. It is derived mostly from a chronic hepatitis or chronic alcoholism, however, the precise causes thereof are unknown. In a hepatocirrhosis patient, the amount of cytokines, e.g., TNF-α, which is involved in inflammation and fibrosis, is in an increased state; and, therefore, the inhibition of hepatocirrhosis by acanthoic acid may be determined by the inhibitory activity to TNF-α. To induce the experimental hepatocirrhosis in accordance with the method of Nakataukasa, H., et al. as described in J. Clin. Invest., 85, 1833-1843(1990), 1.0 ml/100 g of body weight of CCl4 solution(50% CCl4 +50% corn oil) was injected intraperitoneally to 4 week old male Sprague-Dawley rats twice a week, and 0.2 ml each of methanol extract of A. koreanum Nakai and acanthoic acid was administered orally at the time of the injection of CCl4 twice a week. After 13 weeks from the start of the test, each of the rats was anesthetized with ether and the blood samples were obtained from the heart to determine serum glutamic-oxaloacetic transaminase(sGOT) value and serum glutamic-pyruvic transaminase(sGPT) value(FIG. 10).

For data set [3], the system named is O2^- production in human monocytes and macrophages. Kind of data set: Production of O2^- in silica-stimulated human monocytes and macrophages. It counts as cell-based. As to conditions: 10 μg/ml, 1 hour, 100 μg/ml silica, FIG. 5. As to the method:
Normal human peripheral blood was heparin-treated and diluted with equal amount of Hank's balanced salt solution (HBSS: Ca^2+ and Mg^2+ free). The diluted blood was put into a centrifuge tube containing therein Ficoll-Hypaque(Sigma, St. Louis, Mo., U.S.A.) layer having a density of 1.077 piled up on Ficoll-Hypaque layer having a density of 1.119, and then centrifuged at 700×g for 30 minutes to obtain monocytes from the layer between Ficoll-Hypaque layer having a density of 1.077 and serum layer, and neutrophils from the layer between Ficoll-Hypaque layer having a density of 1.077 and that having a density of 1.119. The separated cells were washed twice with 4° C. HBSS(Ca^2+ and Mg^2+ free) and suspended in RPMI 1640 medium(Gibco, Grand Island, N.Y., U.S.A.) containing 10% fetal bovine serum(FBS, Hyclone, Logan, Utah, U.S.A.). The suspensions were added to the wells of 24-well incubation plate(Costar, Cambridge, Mass., U.S.A.) and incubated at 37° C. for 2 hours to obtain monocytes, macrophages and neutrophils. […] The change of color of the supernatant caused by the reduction of cytochrome C was measured at 550 nm by using a UV-Visible spectrophotometer (Kontron Instrument, Milano, Italy). […]

A further data set concerns rat. To be noted: cited from earlier work.

With `C=C[C@@]1(C)CC=C2C(CCC3[C@](C)(C(=O)O)CCC[C@@]23C)C1` (single isomer, unassigned; (-)) [acanthoic acid, (-)-pimara-9(11),15-diene-19-oic acid], the proliferation of fibroblasts entry in the data set on NIH3T3 fibroblasts is recorded as “inhibited significantly”. Further, the “inhibition of leukocyte migration” value in the data set with leukocyte migration is “inhibit the leukocyte migration”. Moreover, the “inhibition of prostaglandin E2 (PGE2) synthesis” value in data set [1] is listed as “inhibit”. Further, the “decrease of sGOT value” in data set [2] stood at 30%. The “amount of O2^-” value in data set [3] was “decrease significantly”. For the same compound, in the data set with rat, the “minimum lethal dose(MLD)” value is on record as 1000 mg/kg.
